Experimental data as given in PubChem BioAssay AID248 (DTP/NCI, 2004).
Where “and” joins values, the source holds several entries; their conditions need not be identical. Equal values may be shown once. Inconclusive results and toxic doses are left out.

System: L1210 leukemia ip in BDF1 mice, survival T/C
Assay: NCI In Vivo Anticancer Drug Screen. Data for tumor model L1210 Leukemia (intraperitoneal) in B6D2F1 (BDF1) mice
Conditions: endpoint: mean survival time, higher = longer survival
Procedure, shortened: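 Each compound was tested against a transplantable tumor grown in mice. The endpoint was survival, with treated animals benchmarked against vehicle controls as a simple ratio.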

[1] = dose: 25.0 mg/kg/injection, schedule: Q01DX009 (ip), vehicle: saline
[2] = dose: 100.0 mg/kg/injection, schedule: Q01DX009 (ip), vehicle: saline
[3] = dose: 100.0 mg/kg/injection, schedule: Q04DX003 (ip), vehicle: saline with Tween-80
[4] = dose: 200.0 mg/kg/injection, schedule: Q04DX003 (ip), vehicle: saline with Tween-80
[5] = dose: 400.0 mg/kg/injection, schedule: Q04DX003 (ip), vehicle: saline with Tween-80
[6] = dose: 100.0 mg/kg/injection, schedule: Q04DX002 (ip), vehicle: Klucel (hydroxypropylcellulose) (HPC)
[7] = dose: 200.0 mg/kg/injection, schedule: Q04DX002 (ip), vehicle: Klucel (hydroxypropylcellulose) (HPC)
[8] = dose: 400.0 mg/kg/injection, schedule: Q04DX002 (ip), vehicle: Klucel (hydroxypropylcellulose) (HPC)
[9] = dose: 100.0 mg/kg/injection, schedule: Q01DX001 (ip), vehicle: carboxymethylcellulose (CMC)
[10] = dose: 200.0 mg/kg/injection, schedule: Q01DX001 (ip), vehicle: carboxymethylcellulose (CMC)
[11] = dose: 50.0 mg/kg/injection, schedule: Q01DX001 (ip), vehicle: saline
[12] = dose: 100.0 mg/kg/injection, schedule: Q01DX001 (ip), vehicle: saline
[13] = dose: 200.0 mg/kg/injection, schedule: Q01DX001 (ip), vehicle: saline

SMILES: C=C1C(=O)OC2CC(C)C3CC(OCCCl)OC(OCCCl)C3(C)CC12 (configuration not stated)
- T/C (dose: 1.25 mg/kg/injection, schedule: Q01DX005 (ip), vehicle: other): 104 % of control
- T/C (dose: 2.5 mg/kg/injection, schedule: Q01DX005 (ip), vehicle: other): 106 % of control
- T/C (dose: 5.0 mg/kg/injection, schedule: Q01DX005 (ip), vehicle: other): 101 % of control
- T/C (dose: 10.0 mg/kg/injection, schedule: Q01DX005 (ip), vehicle: other): 101 % of control
- T/C (dose: 20.0 mg/kg/injection, schedule: Q01DX005 (ip), vehicle: other): 113 % of control

SMILES: NCCCCS(=O)(=O)Nc1ccc(Nc2c3ccccc3nc3cc([N+](=O)[O-])ccc23)cc1
- T/C (dose: 2.1 mg/kg/injection, schedule: Q01DX009 (ip), vehicle: saline): 117 % of control
- T/C (dose: 3.1 mg/kg/injection, schedule: Q01DX009 (ip), vehicle: saline): 121 % of control
- T/C (dose: 16.0 mg/kg/injection, schedule: Q01DX009 (ip), vehicle: saline): 123 % of control
- T/C [1]: 158 % of control
- T/C (dose: 25.0 mg/kg/injection, schedule: Q01DX009 (sc), vehicle: saline): 111 % of control
- T/C (dose: 50.0 mg/kg/injection, schedule: Q01DX009 (ip), vehicle: saline): 228 % of control
- T/C (dose: 50.0 mg/kg/injection, schedule: Q01DX009 (sc), vehicle: saline): 118 % of control
- T/C [2]: 266 % of control
- T/C (dose: 100.0 mg/kg/injection, schedule: Q01DX009 (sc), vehicle: saline): 175 % of control
- T/C (dose: 200.0 mg/kg/injection, schedule: Q01DX009 (sc), vehicle: saline): 163 % of control

SMILES: CCCCCCC(CCC1CCCCC1)C(=O)O (configuration not stated)
- T/C (dose: 100.0 mg/kg/injection, schedule: Q01DX001 (ip), vehicle: saline with Tween-80): 88 % of control
- T/C (dose: 200.0 mg/kg/injection, schedule: Q01DX001 (ip), vehicle: saline with Tween-80): 96 % of control
- T/C (dose: 400.0 mg/kg/injection, schedule: Q01DX001 (ip), vehicle: saline with Tween-80): 92 % of control

SMILES: c1ccc(Nc2n[n+](-c3ccccc3)no2)cc1
- T/C (dose: 100.0 mg/kg/injection, schedule: Q01DX009 (ip), vehicle: saline with Tween-80): 106 % of control
- T/C [3]: 108 % of control
- T/C (dose: 200.0 mg/kg/injection, schedule: Q01DX009 (ip), vehicle: saline with Tween-80): 101 % of control
- T/C [4]: 100 % of control
- T/C (dose: 400.0 mg/kg/injection, schedule: Q01DX009 (ip), vehicle: saline with Tween-80): 108 % of control
- T/C [5]: 110 % of control

SMILES: Nc1nc2ncc(CNc3ccc(C(=O)NC(CCC(=O)O)C(=O)O)cn3)nc2c(=O)[nH]1 (configuration not stated)
- T/C (dose: 25.0 mg/kg/injection, schedule: Q01DX009 (ip), vehicle: saline with Tween-80): 104 % of control
- T/C (dose: 37.5 mg/kg/injection, schedule: Q01DX009 (ip), vehicle: saline with Tween-80): 114 % of control and 119 % of control
- T/C (dose: 50.0 mg/kg/injection, schedule: Q01DX009 (ip), vehicle: saline with Tween-80): 114 % of control
- T/C (dose: 75.0 mg/kg/injection, schedule: Q01DX009 (ip), vehicle: saline with Tween-80): 108 % of control

SMILES: Cc1ccc(C)c(NC(=O)Nc2ncccn2)c1
- T/C (dose: 100.0 mg/kg/injection, schedule: Q01DX009 (ip), vehicle: Klucel (hydroxypropylcellulose) (HPC)): 102 % of control
- T/C (dose: 200.0 mg/kg/injection, schedule: Q01DX009 (ip), vehicle: Klucel (hydroxypropylcellulose) (HPC)): 92 % of control
- T/C (dose: 400.0 mg/kg/injection, schedule: Q01DX009 (ip), vehicle: Klucel (hydroxypropylcellulose) (HPC)): 97 % of control

SMILES: CCCCCCOC(=O)C[n+]1cccc(C(N)=O)c1
- T/C (dose: 100.0 mg/kg/injection, schedule: Q04DX003 (ip), vehicle: saline): 95 % of control

SMILES: C/C(=C\Cn1cc([N+](=O)[O-])ccc1=O)CCC(=O)O
- T/C (dose: 100.0 mg/kg/injection, schedule: Q01DX009 (ip), vehicle: water): 108 % of control
- T/C (dose: 100.0 mg/kg/injection, schedule: Q04DX003 (ip), vehicle: other): 102 % of control
- T/C (dose: 200.0 mg/kg/injection, schedule: Q01DX009 (ip), vehicle: water): 96 % of control
- T/C (dose: 200.0 mg/kg/injection, schedule: Q04DX003 (ip), vehicle: other): 98 % of control
- T/C (dose: 400.0 mg/kg/injection, schedule: Q01DX009 (ip), vehicle: water): 97 % of control
- T/C (dose: 400.0 mg/kg/injection, schedule: Q04DX003 (ip), vehicle: other): 102 % of control

SMILES: Nc1ccccc1Sc1ccc(C(=O)O)cc1[N+](=O)[O-]
- T/C (dose: 100.0 mg/kg/injection, schedule: Q04DX003 (ip), vehicle: Klucel (hydroxypropylcellulose) (HPC)): 104 % of control
- T/C (dose: 200.0 mg/kg/injection, schedule: Q04DX003 (ip), vehicle: Klucel (hydroxypropylcellulose) (HPC)): 96 % of control
- T/C (dose: 400.0 mg/kg/injection, schedule: Q04DX003 (ip), vehicle: Klucel (hydroxypropylcellulose) (HPC)): 100 % of control

SMILES: CCCCOC(=O)c1ccc(NC(=O)Nc2cc([N+](=O)[O-])ccc2F)cc1
- T/C [6]: 93 % of control
- T/C [7]: 104 % of control
- T/C [8]: 93 % of control

SMILES: C=CN(C=C)P(=O)(C1C(=O)C(C(=O)OCC)C(c2ccc(OC(C)=O)cc2)C(C(=O)OCC)C1=O)C1C(=O)C(C(=O)OCC)C(c2ccc(OC(C)=O)cc2)C(C(=O)OCC)C1=O (configuration not stated)
- T/C [3]: 97 % of control
- T/C [4]: 96 % of control
- T/C [5]: 100 % of control

SMILES: Cc1ccc(-c2csc(NC(=O)CC(=O)N/N=C/c3ccc(N(CCCl)CCCl)cc3C)n2)cc1
- T/C [9]: 112 % of control
- T/C [10]: 88 % of control
- T/C (dose: 400.0 mg/kg/injection, schedule: Q01DX001 (ip), vehicle: carboxymethylcellulose (CMC)): 93 % of control

SMILES: CSc1nnnn1-c1ccccc1
- T/C (dose: 100.0 mg/kg/injection, schedule: Q04DX003 (ip), vehicle: acetone): 100 % of control
- T/C [3]: 102 % of control
- T/C [4]: 100 % of control
- T/C (dose: 400.0 mg/kg/injection, schedule: Q04DX003 (ip), vehicle: acetone): 100 % of control

SMILES: BrCc1ccc(-c2ccccc2)cc1
- T/C (dose: 5.0 mg/kg/injection, schedule: Q01DX009 (ip), vehicle: Klucel (hydroxypropylcellulose) (HPC)): 96 % of control
- T/C (dose: 5.0 mg/kg/injection, schedule: Q04DX003 (ip), vehicle: Klucel (hydroxypropylcellulose) (HPC)): 92 % of control
- T/C (dose: 10.0 mg/kg/injection, schedule: Q01DX009 (ip), vehicle: Klucel (hydroxypropylcellulose) (HPC)): 93 % of control
- T/C (dose: 10.0 mg/kg/injection, schedule: Q04DX003 (ip), vehicle: Klucel (hydroxypropylcellulose) (HPC)): 97 % of control
- T/C (dose: 20.0 mg/kg/injection, schedule: Q01DX009 (ip), vehicle: Klucel (hydroxypropylcellulose) (HPC)): 98 % of control
- T/C (dose: 20.0 mg/kg/injection, schedule: Q04DX003 (ip), vehicle: Klucel (hydroxypropylcellulose) (HPC)): 93 % of control

SMILES: CCN(CC)Cc1c(C)cc2oc(=O)c3c(c2c1O)CCCC3
- T/C [9]: 93 % of control
- T/C [10]: 93 % of control

SMILES: CS/C(N)=N\NC(N)=S
- T/C (dose: 100.0 mg/kg/injection, schedule: Q01DX001 (ip), vehicle: Klucel (hydroxypropylcellulose) (HPC)): 96 % of control
- T/C (dose: 200.0 mg/kg/injection, schedule: Q01DX001 (ip), vehicle: Klucel (hydroxypropylcellulose) (HPC)): 88 % of control

SMILES: CN(C)c1ccc(/C(=N\O)C(=O)O)cc1
- T/C [11]: 107 % of control
- T/C [12]: 105 % of control
- T/C [13]: 100 % of control

SMILES: CCc1ccncc1
- T/C [12]: 101 % of control
- T/C [13]: 88 % of control

SMILES: O=C(Oc1c(Cl)cc(S(=O)(=O)F)cc1Cl)c1ccccc1Cl
- T/C [6]: 92 % of control
- T/C [7]: 89 % of control
- T/C [8]: 89 % of control

SMILES: CCOC1=C(Br)C=CN(S(=O)(=O)c2ccc(C)cc2)c2ccccc21
- T/C [2]: 97 % of control
- T/C (dose: 200.0 mg/kg/injection, schedule: Q01DX009 (ip), vehicle: saline): 94 % of control
- T/C (dose: 400.0 mg/kg/injection, schedule: Q01DX009 (ip), vehicle: saline): 93 % of control

SMILES: CCCCCCCCCCC1Cc2ccccc2C1
- T/C [11]: 95 % of control
- T/C [12]: 98 % of control
- T/C [13]: 104 % of control
- T/C (dose: 400.0 mg/kg/injection, schedule: Q01DX001 (ip), vehicle: saline): 93 % of control

SMILES: O=C1CCC(c2ccccc2)(C2CCN(Cc3ccc(F)cc3)CC2)C(=O)N1 (configuration not stated)
- T/C (dose: 6.25 mg/kg/injection, schedule: Q01DX009 (ip), vehicle: saline): 97 % of control
- T/C (dose: 12.5 mg/kg/injection, schedule: Q01DX009 (ip), vehicle: saline): 102 % of control
- T/C [1]: 102 % of control
